Reference: PubChem BioAssay AID1963842 (Molecular Pharmacology Branch, DTP, NCI, 2024)

Tested on: 677734-321-R-J1-PDC complex spheroid viability
Test: Anticancer human tumor 677734-321-R-J1-PDC patient-derived soft tissue sarcoma cell line growth inhibition [POLQ]
Conditions: for IC50: curve of first compound; for viability, T/C: stronger effect = lower value
In short: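 Growth inhibition in 3D: complex spheroids (tumor PDC, HUVEC, MSC) treated with POLQ inhibitor combinations; where Cmax unknown, highest tested concentration 10 microM, except SN-38 at 1 microM.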

[1] = second compound 0.0316 µM, first compound 0.0316 µM
[2] = second compound 0.0316 µM, first compound 0.1 µM
[3] = second compound 0.0316 µM, first compound 0.316 µM
[4] = second compound 0.0316 µM, first compound 1 µM
[5] = second compound 0.0316 µM, first compound 3.16 µM
[6] = second compound 0.0316 µM, first compound 10 µM
[7] = second compound 0.1 µM, first compound 0.0316 µM
[8] = second compound 0.1 µM, first compound 0.1 µM
[9] = second compound 0.1 µM, first compound 0.316 µM
[10] = second compound 0.1 µM, first compound 1 µM
[11] = second compound 0.1 µM, first compound 3.16 µM
[12] = second compound 0.1 µM, first compound 10 µM
[13] = second compound 0.316 µM, first compound 0.0316 µM
[14] = second compound 0.316 µM, first compound 0.1 µM
[15] = second compound 0.316 µM, first compound 0.316 µM
[16] = second compound 0.316 µM, first compound 1 µM
[17] = second compound 0.316 µM, first compound 3.16 µM
[18] = second compound 0.316 µM, first compound 10 µM
[19] = second compound 1 µM, first compound 0.0316 µM
[20] = second compound 1 µM, first compound 0.1 µM
[21] = second compound 1 µM, first compound 0.316 µM
[22] = second compound 1 µM, first compound 1 µM
[23] = second compound 1 µM, first compound 3.16 µM
[24] = second compound 1 µM, first compound 10 µM
[25] = second compound 3.16 µM, first compound 0.0316 µM
[26] = second compound 3.16 µM, first compound 0.1 µM
[27] = second compound 3.16 µM, first compound 0.316 µM
[28] = second compound 3.16 µM, first compound 1 µM
[29] = second compound 3.16 µM, first compound 3.16 µM
[30] = second compound 3.16 µM, first compound 10 µM
[31] = second compound 10 µM, first compound 0.0316 µM
[32] = second compound 10 µM, first compound 0.1 µM
[33] = second compound 10 µM, first compound 0.316 µM
[34] = second compound 10 µM, first compound 1 µM
[35] = second compound 10 µM, first compound 3.16 µM
[36] = second compound 10 µM, first compound 10 µM
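Also: spheroids exposed to compounds for one week.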
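For viability, T/C in this document: 100% = vehicle DMSO treated spheroids.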

COc1cc(C2c3cc4c(cc3C(OC3OC5COC(C)OC5C(O)C3O)C3COC(=O)C23)OCO4)cc(OC)c1O (stereo unspecified) + Nc1ccc(C#CCN(C(=O)Cc2ncc(C(F)(F)F)cc2C(F)(F)F)c2ccc(F)cc2)nn1
IC50 (second compound 0.0316 µM): 417 nM | IC50 (second compound 0.1 µM): 482 nM | IC50 (second compound 0.316 µM): 315 nM | IC50 (second compound 1 µM): 375 nM | IC50 (second compound 3.16 µM): 341 nM | IC50 (second compound 10 µM): 219 nM | viability, T/C [1]: 98.2% | viability, T/C [2]: 93.8% | viability, T/C [3]: 47.1% | viability, T/C [4]: 37.2% | viability, T/C [5]: 16.8% | viability, T/C [6]: 10.4% | viability, T/C [7]: 97.4% | viability, T/C [8]: 92.5% | viability, T/C [9]: 45.8% | viability, T/C [10]: 46% | viability, T/C [11]: 11.4% | viability, T/C [12]: 8.28% | viability, T/C [13]: 122% | viability, T/C [14]: 102% | viability, T/C [15]: 45% | viability, T/C [16]: 29.6% | viability, T/C [17]: 12.6% | viability, T/C [18]: 10.6% | viability, T/C [19]: 111% | viability, T/C [20]: 75.3% | viability, T/C [21]: 54% | viability, T/C [22]: 36.2% | viability, T/C [23]: 15.4% | viability, T/C [24]: 8.43% | viability, T/C [25]: 101% | viability, T/C [26]: 89.2% | viability, T/C [27]: 41.8% | viability, T/C [28]: 36.6% | viability, T/C [29]: 12.5% | viability, T/C [30]: 10% | viability, T/C [31]: 108% | viability, T/C [32]: 72.6% | viability, T/C [33]: 31% | viability, T/C [34]: 35.5% | viability, T/C [35]: 12.5% | viability, T/C [36]: 8.79%

COc1cccc2c1C(=O)c1c(O)c3c(c(O)c1C2=O)CC(O)(C(=O)CO)CC3OC1CC(N)C(O)C(C)O1 (stereo unspecified) + Nc1ccc(C#CCN(C(=O)Cc2ncc(C(F)(F)F)cc2C(F)(F)F)c2ccc(F)cc2)nn1
IC50 (second compound 0.0316 µM): 39.8 nM | IC50 (second compound 0.1 µM): 46.7 nM | IC50 (second compound 0.316 µM): 44.4 nM | IC50 (second compound 1 µM): 78.5 nM | IC50 (second compound 3.16 µM): 40.6 nM | IC50 (second compound 10 µM): 41 nM | viability, T/C [1]: 55.1% | viability, T/C [2]: 29.5% | viability, T/C [3]: 4.74% | viability, T/C [4]: 1.41% | viability, T/C [5]: 1.65% | viability, T/C [6]: 1.2% | viability, T/C [7]: 61% | viability, T/C [8]: 28.5% | viability, T/C [9]: 4.99% | viability, T/C [10]: 1.48% | viability, T/C [11]: 1.35% | viability, T/C [12]: 1.19% | viability, T/C [13]: 58.5% | viability, T/C [14]: 29.6% | viability, T/C [15]: 6.1% | viability, T/C [16]: 0.73% | viability, T/C [17]: 2.36% | viability, T/C [18]: 0.63% | viability, T/C [19]: 60% | viability, T/C [20]: 47.3% | viability, T/C [21]: 4.86% | viability, T/C [22]: 1.7% | viability, T/C [23]: 1.58% | viability, T/C [24]: 0.84% | viability, T/C [25]: 58.1% | viability, T/C [26]: 21.1% | viability, T/C [27]: 4.68% | viability, T/C [28]: 0.97% | viability, T/C [29]: 1.23% | viability, T/C [30]: 0.74% | viability, T/C [31]: 57.3% | viability, T/C [32]: 24.8% | viability, T/C [33]: 4.54% | viability, T/C [34]: 1.86% | viability, T/C [35]: 2.02% | viability, T/C [36]: 0.8%

Nc1ccn(C2OC(CO)C(O)C2(F)F)c(=O)n1 (stereo unspecified) + Nc1ccc(C#CCN(C(=O)Cc2ncc(C(F)(F)F)cc2C(F)(F)F)c2ccc(F)cc2)nn1
IC50 (second compound 0.0316 µM): < 31.6 nM | IC50 (second compound 0.1 µM): < 31.6 nM | IC50 (second compound 0.316 µM): < 31.6 nM | IC50 (second compound 1 µM): < 31.6 nM | IC50 (second compound 3.16 µM): < 31.6 nM | IC50 (second compound 10 µM): 68.3 nM | viability, T/C [1]: 15.4% | viability, T/C [2]: 11.3% | viability, T/C [3]: 11.7% | viability, T/C [4]: 10.9% | viability, T/C [5]: 10.4% | viability, T/C [6]: 5.84% | viability, T/C [7]: 17.8% | viability, T/C [8]: 13% | viability, T/C [9]: 11.4% | viability, T/C [10]: 11.2% | viability, T/C [11]: 8.25% | viability, T/C [12]: 6.36% | viability, T/C [13]: 18.4% | viability, T/C [14]: 11.9% | viability, T/C [15]: 13% | viability, T/C [16]: 12.1% | viability, T/C [17]: 11.4% | viability, T/C [18]: 6.35% | viability, T/C [19]: 28.2% | viability, T/C [20]: 11.8% | viability, T/C [21]: 12.3% | viability, T/C [22]: 13.7% | viability, T/C [23]: 10.3% | viability, T/C [24]: 6.64% | viability, T/C [25]: 46.4% | viability, T/C [26]: 15.8% | viability, T/C [27]: 13.1% | viability, T/C [28]: 13.7% | viability, T/C [29]: 9.36% | viability, T/C [30]: 7.65% | viability, T/C [31]: 87.1% | viability, T/C [32]: 31.4% | viability, T/C [33]: 14.1% | viability, T/C [34]: 14.3% | viability, T/C [35]: 10.6% | viability, T/C [36]: 9.19%
